System: RAW264.7
Test: Cytotoxicity against mouse RAW264.7 cells assessed as cell viability at 40 uM incubated for 24 hrs by MTT assay
Format: toxicity, cell-based
Settings: raw264.7, 24 h
With CC(C)(C)OC(=O)NCCCC(=O)Nc1nc2c(s1)C[C@]1(C)[C@H]3C[C@@H](O)[C@@H]4C([C@]5(C)CC[C@@H](C(C)(C)O)O5)CC[C@@]4(C)[C@]3(C)CC[C@H]1C2(C)C (stereo partly specified) the Activity was “Toxic”.
In the case of CC(C)(O)[C@H]1CC[C@@](C)(C2CC[C@]3(C)[C@@H]2[C@H](O)C[C@@H]2[C@@]4(C)CC[C@H](OC(=O)CCC(=O)Nc5nnc(Br)s5)C(C)(C)[C@@H]4CC[C@]23C)O1 (stereo partly specified), the Activity is reported as “Toxic”.
In the case of Cc1nnc(NC(=O)CCC(=O)O[C@H]2CC[C@]3(C)[C@H]4C[C@@H](O)[C@@H]5C([C@]6(C)CC[C@@H](C(C)(C)O)O6)CC[C@@]5(C)[C@]4(C)CC[C@H]3C2(C)C)s1 (stereo partly specified), the Activity is reported as “Toxic”.
In the case of CC(C)(C)OC(=O)NCCCCCC(=O)Nc1nc2c(s1)C[C@]1(C)[C@H]3C[C@@H](O)[C@@H]4C([C@]5(C)CC[C@H](C(C)(C)O)O5)CC[C@@]4(C)[C@]3(C)CC[C@H]1C2(C)C (stereo partly specified), the Activity is reported as “Toxic”.
With CC(C)(C)OC(=O)NCCCCCCCCCCC(=O)Nc1nc2c(s1)C[C@]1(C)[C@H]3C[C@@H](O)[C@@H]4C([C@]5(C)CC[C@H](C(C)(C)O)O5)CC[C@@]4(C)[C@]3(C)CC[C@H]1C2(C)C (stereo partly specified) the Activity was “Toxic”.
In the case of CC(C)(O)[C@H]1CC[C@@](C)(C2CC[C@]3(C)[C@@H]2[C@H](O)C[C@@H]2[C@@]4(C)Cc5sc(NC(=O)C(F)(F)F)nc5C(C)(C)[C@@H]4CC[C@]23C)O1 (stereo partly specified), the Activity is reported as “Toxic”.
For Cc1nnc(NC(=O)CCC(=O)O[C@H]2CC[C@]3(C)[C@H]4C[C@@H](O)[C@@H]5C([C@]6(C)CC[C@H](C(C)(C)O)O6)CC[C@@]5(C)[C@]4(C)CC[C@H]3C2(C)C)s1 (stereo partly specified), the Activity was “Toxic”.
For CC(C)(C)OC(=O)NCCCCCCCC(=O)Nc1nc2c(s1)C[C@]1(C)[C@H]3C[C@@H](O)[C@@H]4C([C@]5(C)CC[C@H](C(C)(C)O)O5)CC[C@@]4(C)[C@]3(C)CC[C@H]1C2(C)C (stereo partly specified), the Activity was “Toxic”.
In the case of CC(C)(C)OC(=O)NCCCC(=O)Nc1nc2c(s1)C[C@]1(C)[C@H]3C[C@@H](O)[C@@H]4C([C@]5(C)CC[C@H](C(C)(C)O)O5)CC[C@@]4(C)[C@]3(C)CC[C@H]1C2(C)C (stereo partly specified), the Activity is reported as “Toxic”.
For CC(=O)Nc1nc2c(s1)C[C@]1(C)[C@H]3C[C@@H](O)[C@@H]4C([C@]5(C)CC[C@@H](C(C)(C)O)O5)CC[C@@]4(C)[C@]3(C)CC[C@H]1C2(C)C (stereo partly specified), the Activity was “Toxic”.
For CC(=O)Nc1nc2c(s1)C[C@]1(C)[C@H]3C[C@@H](O)[C@@H]4C([C@]5(C)CC[C@H](C(C)(C)O)O5)CC[C@@]4(C)[C@]3(C)CC[C@H]1C2(C)C (stereo partly specified), the Activity was “Toxic”.

System: not listed separately
Test: Cytotoxicity against mouse RAW264.7 cells assessed as cell viability at 40 uM incubated for 24 hrs by MTT assay relative to control
Format: toxicity, cell-based
Settings: read-out: Activity
For CC(C)(O)[C@@H]1CC[C@@](C)(C2CC[C@]3(C)[C@@H]2[C@H](O)C[C@@H]2[C@@]4(C)Cc5sc(N)nc5C(C)(C)[C@@H]4CC[C@]23C)O1 (stereo partly specified), the viability at 24 h, 40 µM was > 90%.
With CC(C)(O)[C@H]1CC[C@@](C)(C2CC[C@]3(C)[C@@H]2[C@H](O)C[C@@H]2[C@@]4(C)CC[C@H](OC(=O)CCC(=O)Nc5nncs5)C(C)(C)[C@@H]4CC[C@]23C)O1 (stereo partly specified) the viability at 24 h, 40 µM was > 90%.
In the case of CC(C)(O)[C@H]1CC[C@@](C)(C2CC[C@]3(C)[C@@H]2[C@H](O)C[C@@H]2[C@@]4(C)CC[C@H](OC(=O)CCC(=O)Nc5nnc(Cl)s5)C(C)(C)[C@@H]4CC[C@]23C)O1 (stereo partly specified), the viability at 24 h, 40 µM is reported as > 90%.
For CC(C)(O)[C@H]1CC[C@@](C)(C2CC[C@]3(C)[C@@H]2[C@H](O)C[C@@H]2[C@@]4(C)Cc5sc(N)nc5C(C)(C)[C@@H]4CC[C@]23C)O1 (stereo partly specified), the viability at 24 h, 40 µM was > 90%.

System: RAW264.7
Test: Inhibition of LPS-induced NO production in mouse RAW264.7 cells at 5 uM pretreated for 2 hrs followed by LPS stimulation for 24 hrs by Griess assay relative to control
Format: functional
Settings: time 26 hrs
CC(C)(O)[C@@H]1CC[C@@](C)(C2CC[C@]3(C)[C@@H]2[C@H](O)C[C@@H]2[C@@]4(C)Cc5sc(N)nc5C(C)(C)[C@@H]4CC[C@]23C)O1 (stereo partly specified) gave an inhibition at 5 µM of 11.4%.
CC(C)(O)[C@H]1CC[C@@](C)(C2CC[C@]3(C)[C@@H]2[C@H](O)C[C@@H]2[C@@]4(C)CC[C@H](OC(=O)CCC(=O)Nc5nncs5)C(C)(C)[C@@H]4CC[C@]23C)O1 (stereo partly specified) gave an inhibition at 5 µM of 10.8%.
For CC(C)(O)[C@H]1CC[C@@](C)(C2CC[C@]3(C)[C@@H]2[C@H](O)C[C@@H]2[C@@]4(C)CC[C@H](OC(=O)CCC(=O)Nc5nnc(Cl)s5)C(C)(C)[C@@H]4CC[C@]23C)O1 (stereo partly specified), the inhibition at 5 µM was 28.6%.
For CC(C)(O)[C@H]1CC[C@@](C)(C2CC[C@]3(C)[C@@H]2[C@H](O)C[C@@H]2[C@@]4(C)Cc5sc(N)nc5C(C)(C)[C@@H]4CC[C@]23C)O1 (stereo partly specified), the inhibition at 5 µM was 19%.

System: RAW264.7
Test: Inhibition of LPS-induced NO production in mouse RAW264.7 cells at 10 uM pretreated for 2 hrs followed by LPS stimulation for 24 hrs by Griess assay relative to control
Format: functional
Settings: time 26 hrs
With CC(C)(O)[C@@H]1CC[C@@](C)(C2CC[C@]3(C)[C@@H]2[C@H](O)C[C@@H]2[C@@]4(C)Cc5sc(N)nc5C(C)(C)[C@@H]4CC[C@]23C)O1 (stereo partly specified) the inhibition at 10 µM was 23.5%.
Work on CC(C)(O)[C@H]1CC[C@@](C)(C2CC[C@]3(C)[C@@H]2[C@H](O)C[C@@H]2[C@@]4(C)CC[C@H](OC(=O)CCC(=O)Nc5nncs5)C(C)(C)[C@@H]4CC[C@]23C)O1 (stereo partly specified) yielded an inhibition at 10 µM of 18.5%.
CC(C)(O)[C@H]1CC[C@@](C)(C2CC[C@]3(C)[C@@H]2[C@H](O)C[C@@H]2[C@@]4(C)CC[C@H](OC(=O)CCC(=O)Nc5nnc(Cl)s5)C(C)(C)[C@@H]4CC[C@]23C)O1 (stereo partly specified) showed an inhibition at 10 µM of 47.3%.
Molecule CC(C)(O)[C@H]1CC[C@@](C)(C2CC[C@]3(C)[C@@H]2[C@H](O)C[C@@H]2[C@@]4(C)Cc5sc(N)nc5C(C)(C)[C@@H]4CC[C@]23C)O1 (stereo partly specified) has an inhibition at 10 µM of 23.9%.

System: RAW264.7
Test: Inhibition of LPS-induced NO production in mouse RAW264.7 cells at 20 uM pretreated for 2 hrs followed by LPS stimulation for 24 hrs by Griess assay relative to control
Format: functional
Settings: time 26 hrs
CC(C)(O)[C@@H]1CC[C@@](C)(C2CC[C@]3(C)[C@@H]2[C@H](O)C[C@@H]2[C@@]4(C)Cc5sc(N)nc5C(C)(C)[C@@H]4CC[C@]23C)O1 (stereo partly specified) showed an inhibition at 20 µM of 36.6%.
Work on CC(C)(O)[C@H]1CC[C@@](C)(C2CC[C@]3(C)[C@@H]2[C@H](O)C[C@@H]2[C@@]4(C)CC[C@H](OC(=O)CCC(=O)Nc5nncs5)C(C)(C)[C@@H]4CC[C@]23C)O1 (stereo partly specified) yielded an inhibition at 20 µM of 35.7%.
In the case of CC(C)(O)[C@H]1CC[C@@](C)(C2CC[C@]3(C)[C@@H]2[C@H](O)C[C@@H]2[C@@]4(C)CC[C@H](OC(=O)CCC(=O)Nc5nnc(Cl)s5)C(C)(C)[C@@H]4CC[C@]23C)O1 (stereo partly specified), the inhibition at 20 µM is reported as 57.9%.
Work on CC(C)(O)[C@H]1CC[C@@](C)(C2CC[C@]3(C)[C@@H]2[C@H](O)C[C@@H]2[C@@]4(C)Cc5sc(N)nc5C(C)(C)[C@@H]4CC[C@]23C)O1 (stereo partly specified) yielded an inhibition at 20 µM of 37.7%.

System: RAW264.7
Test: Inhibition of LPS-induced NO production in mouse RAW264.7 cells pretreated for 2 hrs followed by LPS stimulation for 24 hrs by Griess assay
Format: functional, cell-based
Settings: not given
For CC(C)(O)[C@@H]1CC[C@@](C)(C2CC[C@]3(C)[C@@H]2[C@H](O)C[C@@H]2[C@@]4(C)Cc5sc(N)nc5C(C)(C)[C@@H]4CC[C@]23C)O1 (stereo partly specified), the IC50 was 26.1 µM.
In the case of CC(C)(O)[C@H]1CC[C@@](C)(C2CC[C@]3(C)[C@@H]2[C@H](O)C[C@@H]2[C@@]4(C)CC[C@H](OC(=O)CCC(=O)Nc5nncs5)C(C)(C)[C@@H]4CC[C@]23C)O1 (stereo partly specified), the IC50 is reported as 40.3 µM.
CC(C)(O)[C@H]1CC[C@@](C)(C2CC[C@]3(C)[C@@H]2[C@H](O)C[C@@H]2[C@@]4(C)CC[C@H](OC(=O)CCC(=O)Nc5nnc(Cl)s5)C(C)(C)[C@@H]4CC[C@]23C)O1 (stereo partly specified) gave an IC50 of 11.4 µM.
CC(C)(O)[C@H]1CC[C@@](C)(C2CC[C@]3(C)[C@@H]2[C@H](O)C[C@@H]2[C@@]4(C)Cc5sc(N)nc5C(C)(C)[C@@H]4CC[C@]23C)O1 (stereo partly specified) gave an IC50 of 18.9 µM.

Reference: ChEMBL document CHEMBL5500363, “Discovery of novel ocotillol derivatives modulating glucocorticoid receptor/NF-κB signaling for the treatment of sepsis” (Eur J Med Chem, 2024)
